# Measurements taken from patent publication US6605619B1, “Nitroxides as protectors against oxidatives stress” (The United States of America as represented by the …, priority 1992, dated 2003).
# Marks after values point to notes of the source that are not given here.
# Legend:
# [1] = Water/octanol partition of nitroxides, ratio determined by EPR; format: physicochemical; conditions: Octanol:water
# Source text: CHD, 2-spirocyclohexane doxyl(2-spirocyclohexane-5,5-dimethyl-3-oxazolidinoxyl) and OXANO, 2-ethyl-2,5,5-trimethyl-3-oxazolidine-1-oxyl as well as other nitroxides were synthesized as described by Keana et al (J. Am. Chem. Soc., 89, 3055-3056, 1967) For the general synthesis of the cyclic amines, the appropriate starting ketone was reacted with 2-amino-2-methyl-1-propanol in benzene in the presence of catalytic amounts of p-toluene sulfonic acid. As the cyclic structure formed, water was eliminated. The volume of water collected in a Dean Stark apparatus was monitored and used to gauge the reaction progress. The amines thus produced were purified through fractional distillation under reduced pressure, characterized by 220 MHz ^1H NMR, IR, UV, either EI or CI mass spectroscopy, and subsequently oxidized to the corresponding nitroxides using m-chloroperbenzoic acid. The nitroxides were purified by silica flash chromatography (Still et al, J. Org. Chem., 43, 2923-2925, 1978). Water/octanol ratios were determined by placing a quantity of nitroxide in water+octanol within a separatory funnel. The mixture was shaken thoroughly and allowed to separate for 15 min, whereupon aliquots were taken from both fractions and the ratio of nitroxide distribution was determined using electron paramagnetic resonance (EPR) spectroscopy, by comparing the intensities of signal obtained under N2.
# [2] = EPR signal of nitroxides exposed to O2 flux formed by HX/XO (spin-loss); format: biochemical; conditions: % from total R′RNO + R′RNOH after exposure to 5 mM HX + 0.03 U/ml XO in air-saturated PBS pH 7.2
# Method: For EPR experiments, samples (0.05-0.1 ml) either of solutions of chemicals or cell suspensions were drawn by a syringe into a gas-permeable teflon capillary of 0.8 mm inner diameter, 0.05 mm wall thickness (Zeus Industrial Products, Inc. Raritan, N.J.). Each capillary was folded twice, inserted into a narrow quartz tube which was open at both ends (2.5 mm ID), and then placed horizontally into the EPR cavity. During the experiments, gases of desired compositions were blown around the sample without having to disturb the alignment of the tube within the EPR cavity. EPR spectra were recorded in a Varian E4 (or E9) X-band spectrometer, with field set at 3357 G, modulation frequency of 100 KHz, modulation amplitude of 1 G and non-saturating microwave power. The EPR spectrometer was interfaced to an IBM-PC through an analog-to-digital converter and a data translation hardware (DT2801) and the spectra were digitized using commercial acquisition software, enabling subtraction of background signals. To study the kinetics of the spin-loss, the spectra were deliberately overmodulated, and the magnetic field was kept constant while the intensity of the EPR signal was followed.
# [3] = SOD-inhibitable ferricytochrome c reduction assay, rate constants of reaction with O2 (SOD-like activity); format: biochemical; conditions: low ionic strength (10 mM HEPES), pH 7.0, 22° C.
# Source text: As a further check, the reaction of representatives of both 5- and 6-membered cyclic nitroxides with O2 was studied. The SOD-inhibitable ferricytochrome c reduction assay (Fridovich, Handbook of Methods for Oxygen Radical Research, 213-215, 1985) was used to determine rate constants of reaction with O2. […] The reaction was started by adding 0.01 U/ml XO and the rate of ferricytochrome c reduction, in the absence (V) and in the presence (v) of various nitroxides, was spectrophotometrically followed at 550 nm. Both reference and sample cuvettes contained all the reagents, with the reference cuvette containing 100 units/ml SOD, thereby eliminating spurious reactions from interfering with the determination of rate constants. Data were analyzed by plotting V/v as a function of [nitroxide] and k1 was calculated, knowing kCytC+superoxide, according to:
# (V/v)−1=k1x[nitroxide]/kCytC+superoxidex[Cyt−c^III].
# [4] = test system: Chinese hamster V79 cells; assay: Protection of cells exposed to H2O2 under hypoxic conditions; format: cell-based; conditions: 600 μM H2O2, 1 h, 37° C.
# Method: Some studies required exposure to H2O2 under hypoxic conditions. For these studies, cells dispersed in 1.8 ml of medium were plated into specially designed glass flasks (Russo et al, Radiat. Res., 103, 232-239, 1985). The flasks were sealed with soft rubber stoppers, and 19-gauge needles were pushed through to act as entrance and exit ports for a humidified gas mixture of 95% nitrogen/5% CO2 (Matheson Gas Products). […] Stoppered flasks were connected in series and mounted on a reciprocating platform and gassed at 37° C. for 45 min. […] After 45 min of gassing, the hypoxic H2O2 solution was added to the cell monolayer culture. The cells were exposed to H2O2 for 1 h under hypoxic conditions. N2 gas flow was maintained during the H2O2 exposure. In parallel flasks, DF and CHD were added as described above, and were present during the entire gassing procedure. Following treatment, cell survival was assessed as described above.
# [5] = test system: DNA-Fe(II); assay: Reaction of nitroxide with DNA-Fe(II), EPR spin-loss and OD353nm; format: biochemical, Salmon; conditions: hypoxic mixing, 0.1 mg/ml Salmon DNA, 50 mM MOPS pH 7.0, 22° C.
# Method: All solutions always contained 0.1 mg/ml Salmon DNA. The appearance of DNA-Fe(III) was spectrophotometrically monitored at 353 nm, whereas the spin-loss of CHD was monitored by following its EPR signal. To study the time-dependence of ΔOD353nm (∘), 1 mM CHD was mixed with 0.1 mM Fe(II). To follow the spin-loss of CHD (□), 1 mM Fe(II) was mixed with 0.1 mM CHD.
# It was also questioned whether the aerobic and hypoxic protection by CHD to H2O2 exposure was a result of CHD directly accepting electrons from ferrous ions, thereby preventing generation of .OH. Because cellular iron is chelated, the possible reaction of nitroxide with chelated iron(II) was examined by repeating the experiment in the presence of DNA. To study the possibility of nitroxide-induced oxidation of transition metals, CHD was hypoxically mixed with iron(II) in the presence of 0.1 mg/ml Salmon DNA. Consequently, DNA-Fe(III) was formed and the nitroxide EPR signal disappeared. The reaction kinetics were investigated by maintaining either CHD or Fe(II) in excess while the absorbance due to DNA-Fe(III) and the nitroxide spin-loss were monitored respectively (FIG. 6). Both the decay of the EPR signal and the appearance of the OD353nm obeyed pseudo 1st order kinetics from which the 2nd order reaction rate constant was calculated as 44 M^−1s^−1 or 33 M^−1s^−1 using the data from EPR or optical absorption, respectively.
# [6] = test system: V79 cells; assay: Nitroxide intracellular localization by EPR with trioxalato-chromiate; format: cell-based, Chinese hamster
# Method: The EPR signal intensity of the total concentration of CHD (intra- and extra-cellular) in 6.4×10^7 V79 cells/ml traces (A and C) and in the presence of 110 mM trioxalato-chromiate (CrOx) (traces B and D).
# For EPR experiments, samples (0.05-0.1 ml) either of solutions of chemicals or cell suspensions were drawn by a syringe into a gas-permeable teflon capillary of 0.8 mm inner diameter, 0.05 mm wall thickness (Zeus Industrial Products, Inc. Raritan, N.J.). Each capillary was folded twice, inserted into a narrow quartz tube which was open at both ends (2.5 mm ID), and then placed horizontally into the EPR cavity. During the experiments, gases of desired compositions were blown around the sample without having to disturb the alignment of the tube within the EPR cavity. EPR spectra were recorded in a Varian E4 (or E9) X-band spectrometer, with field set at 3357 G, modulation frequency of 100 KHz, modulation amplitude of 1 G and non-saturating microwave power. The EPR spectrometer was interfaced to an IBM-PC through an analog-to-digital converter and a data translation hardware (DT2801) and the spectra were digitized using commercial acquisition software, enabling subtraction of background signals. To study the kinetics of the spin-loss, the spectra were deliberately overmodulated, and the magnetic field was kept constant while the intensity of the EPR signal was followed. […]
smiles,measurement,setting,value
"CC1(C)CN([O])C2(CCCCC2)O1 [CHD, 2-spirocyclohexane-5,5-dimethyl-3-oxazolidinoxyl]",Partition coefficient,[1],80
same,Steady state EPR signal (%),[2],30%
same,kR′RNO + O2,[3],3.5 × 10^3 M − 1^s − 1
same,protection against H2O2 cytotoxicity under hypoxic conditions,[4],protects
same,"2nd order reaction rate constant with DNA-Fe(II), from EPR data",[5]; EPR spin-loss,44 M⁻¹ s⁻¹
same,"2nd order reaction rate constant with DNA-Fe(II), from optical absorption",[5]; OD353nm,33 M⁻¹ s⁻¹
same,intracellular location / freedom of motion,[6],located primarily in a membranous compartment
